Test results from the supplement of paper PMC13380429.

Key:
[1] = test system: A549-ACE2 infected with SARS-CoV-2; experiment: cell count relative to DMSO; higher = less toxic; details: 24 h
Caco-2 [2] = experiment: cell viability relative to DMSO; higher = less toxic; details: 72 h
Calu-3 [3] = experiment: as above; details: 72 h
HepG2 [4] = experiment: as above; details: 72 h
U2OS [5] = experiment: as above; details: 72 h
Vero E6 [6] = experiment: as above; details: 72 h
[7] = test system: A549-ACE2 infected with SARS-CoV-2; experiment: SARS-CoV-2 infection rate relative to DMSO; higher = more infection; details: 24 h
A549-ACE2 [8] = experiment: phospholipidosis EC50; higher = less potent phospholipidosis inducer
A549-ACE2 [9] = experiment: drug-induced phospholipidosis relative to tamoxifen; higher = more phospholipidosis
[10] = test system: A549-ACE2 infected with SARS-CoV-2; experiment: morphology score (similarity to uninfected cells); higher = more like uninfected cells; details: 24 h
Calu-3 [11] = experiment: relative viability EC50 (midpoint between 100% and the lowest measured viability); higher = less toxic; details: 72 h
HepG2 [12] = experiment: as above; details: 72 h
Caco-2 [13] = experiment: drug sensitivity score (DSS) for viability; higher = more toxic; extreme values may be limits of the assay; details: 72 h
Calu-3 [14] = experiment: as above; details: 72 h
HepG2 [15] = experiment: as above; details: 72 h
U2OS [16] = experiment: as above; details: 72 h
Vero E6 [17] = experiment: as above; details: 72 h
Caco-2 [18] = experiment: relative viability EC50 (midpoint between 100% and the lowest measured viability); higher = less toxic; details: 72 h
U2OS [19] = experiment: as above; details: 72 h
Vero E6 [20] = experiment: as above; details: 72 h

COC(=O)C1=C(C)NC(C)=C(C(=O)NCCCN2CCC(c3ccccc3)(c3ccccc3)CC2)C1c1ccc([N+](=O)[O-])cc1 (centres undefined) [SNAP-5089]
Details | SARS-CoV-2 infection rate [%] | cell count [%] | cell viability [%] | morphology score | phospholipidosis EC50 [µM]
A549-ACE2 [8], 24 h | – | – | – | – | 0.945
A549-ACE2 [8], 48 h | – | – | – | – | 1.98
A549-ACE2 [8], 72 h | – | – | – | – | 4.51
Caco-2 [2], 1 nM | – | – | 95.4 | – | –
Caco-2 [2], 10 nM | – | – | 94.8 | – | –
Caco-2 [2], 100 nM | – | – | 92.9 | – | –
Caco-2 [2], 1000 nM | – | – | 106 | – | –
Caco-2 [2], 10000 nM | – | – | 63 | – | –
Calu-3 [3], 1 nM | – | – | 88.4 | – | –
Calu-3 [3], 10 nM | – | – | 101 | – | –
Calu-3 [3], 100 nM | – | – | 92.3 | – | –
Calu-3 [3], 1000 nM | – | – | 107 | – | –
Calu-3 [3], 10000 nM | – | – | 12.1 | – | –
HepG2 [4], 1 nM | – | – | 114 | – | –
HepG2 [4], 10 nM | – | – | 108 | – | –
HepG2 [4], 100 nM | – | – | 102 | – | –
HepG2 [4], 1000 nM | – | – | 98.6 | – | –
HepG2 [4], 10000 nM | – | – | 35.5 | – | –
U2OS [5], 1 nM | – | – | 94.4 | – | –
U2OS [5], 10 nM | – | – | 98.7 | – | –
U2OS [5], 100 nM | – | – | 98.5 | – | –
U2OS [5], 1000 nM | – | – | 102 | – | –
U2OS [5], 10000 nM | – | – | 63.8 | – | –
Vero E6 [6], 1 nM | – | – | 94.8 | – | –
Vero E6 [6], 10 nM | – | – | 98.5 | – | –
Vero E6 [6], 100 nM | – | – | 97.4 | – | –
Vero E6 [6], 1000 nM | – | – | 91.8 | – | –
Vero E6 [6], 10000 nM | – | – | 74.3 | – | –
[1], 0.1 µM | – | 104 | – | – | –
[1], 0.3 µM | – | 100 | – | – | –
[1], 1 µM | – | 110 | – | – | –
[1], 3 µM | – | 123 | – | – | –
[7], 0.1 µM | 92 | – | – | – | –
[7], 0.3 µM | 107 | – | – | – | –
[7], 1 µM | 84 | – | – | – | –
[7], 3 µM | 23 | – | – | – | –
[10], 0.1 µM | – | – | – | 0.15 | –
[10], 0.3 µM | – | – | – | -0.06 | –
[10], 1 µM | – | – | – | 0.43 | –
[10], 3 µM | – | – | – | 0.87 | –

drug-induced phospholipidosis [%], A549-ACE2 [9]
Details | 0.3 µM | 0.833333 µM | 3.33333 µM | 6.66667 µM | 10 µM | 30 µM
24 h | 5.01 | 19.9 | 66.9 | 74.6 | 62.5 | 47.6
48 h | 7.57 | 17.4 | 77.4 | 93.7 | 96.6 | –
72 h | 6.91 | 11.4 | 64.3 | 94.9 | 116 | –

Details | drug sensitivity score | relative viability EC50 [µM]
Caco-2 [13] | 1.4 | –
Calu-3 [11] | – | 3.57
Calu-3 [14] | 4.4 | –
HepG2 [12] | – | 3.02
HepG2 [15] | 3.7 | –
U2OS [16] | 1.6 | –
Vero E6 [17] | 1.9 | –

COc1cc2c(NC3CCN(C(C)C)CC3)nc(N3CCC(F)(F)CC3)nc2cc1OCCCN1CCCC1 [UNC0642]
Details | SARS-CoV-2 infection rate [%] | cell count [%] | cell viability [%] | morphology score | phospholipidosis EC50 [µM]
A549-ACE2 [8], 48 h | – | – | – | – | 1.19
A549-ACE2 [8], 72 h | – | – | – | – | 3.66
Caco-2 [2], 1 nM | – | – | 101 | – | –
Caco-2 [2], 10 nM | – | – | 92.5 | – | –
Caco-2 [2], 100 nM | – | – | 104 | – | –
Caco-2 [2], 1000 nM | – | – | 106 | – | –
Caco-2 [2], 10000 nM | – | – | 99.7 | – | –
Calu-3 [3], 1 nM | – | – | 93.9 | – | –
Calu-3 [3], 10 nM | – | – | 95.1 | – | –
Calu-3 [3], 100 nM | – | – | 95.3 | – | –
Calu-3 [3], 1000 nM | – | – | 96.6 | – | –
Calu-3 [3], 10000 nM | – | – | 32.9 | – | –
HepG2 [4], 1 nM | – | – | 95.1 | – | –
HepG2 [4], 10 nM | – | – | 103 | – | –
HepG2 [4], 100 nM | – | – | 106 | – | –
HepG2 [4], 1000 nM | – | – | 102 | – | –
HepG2 [4], 10000 nM | – | – | 24.8 | – | –
U2OS [5], 1 nM | – | – | 98.6 | – | –
U2OS [5], 10 nM | – | – | 95.4 | – | –
U2OS [5], 100 nM | – | – | 100 | – | –
U2OS [5], 1000 nM | – | – | 98.6 | – | –
U2OS [5], 10000 nM | – | – | 81.1 | – | –
Vero E6 [6], 1 nM | – | – | 96.6 | – | –
Vero E6 [6], 10 nM | – | – | 102 | – | –
Vero E6 [6], 100 nM | – | – | 91.6 | – | –
Vero E6 [6], 1000 nM | – | – | 108 | – | –
Vero E6 [6], 10000 nM | – | – | 105 | – | –
[1], 0.3 µM | – | 94 | – | – | –
[1], 3 µM | – | 122 | – | – | –
[1], 10 µM | – | 123 | – | – | –
[1], 30 µM | – | 89 | – | – | –
[7], 0.3 µM | 87 | – | – | – | –
[7], 3 µM | 21 | – | – | – | –
[7], 10 µM | 13 | – | – | – | –
[7], 30 µM | 35 | – | – | – | –
[10], 0.3 µM | – | – | – | 0.09 | –
[10], 3 µM | – | – | – | 0.76 | –
[10], 10 µM | – | – | – | 0.09 | –
[10], 30 µM | – | – | – | -0.23 | –

drug-induced phospholipidosis [%], A549-ACE2 [9]
Details | 0.3 µM | 0.833333 µM | 3.33333 µM | 6.66667 µM | 10 µM | 30 µM
24 h | 4.47 | 9.42 | 29.6 | 35.7 | 32.6 | 5.01
48 h | 8.91 | 12.1 | 34 | 48.6 | 51.8 | 0.44
72 h | 9.24 | 11 | 36.7 | 55.6 | 62.4 | –

Details | drug sensitivity score | relative viability EC50 [µM]
Caco-2 [13] | 0 | –
Caco-2 [18] | – | > 10
Calu-3 [11] | – | 2.78
Calu-3 [14] | 4.2 | –
HepG2 [12] | – | 3.34
HepG2 [15] | 4 | –
U2OS [16] | 0.7 | –
U2OS [19] | – | > 10
Vero E6 [17] | 0 | –
Vero E6 [20] | – | > 10
